What was measured:
Experiment in all cases: relative viability (nuclei count vs DMSO), 5 days (fraction); higher = more cells survive
BI-D1870 + Vorinostat = compound: CC(C)CCN1c2nc(Nc3cc(F)c(O)c(F)c3)ncc2N(C)C(=O)C1C [BI-D1870] + O=C(CCCCCCC(=O)Nc1ccccc1)NO [Vorinostat] (partner 1 µM)
Method in brief: (§1)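 Nuclei were stained with Hoechst during a one-step fixation (final 0.05% Triton X-100, 1% formaldehyde, 1 ug/ml Hoechst) carried out 5 days after dosing, then counted on 4× images. The cells, lung cancer lines in 1536-well plates, had been dosed by pin tool the day after seeding with one drug alone or a fixed anchor-drug dose plus five library-drug doses (not always all listed) in √10 steps. Relative viability is the nuclei count in treated wells divided by that in vehicle wells, and each value is the median of duplicate plates.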

BI-D1870 + Alpelisib = compound: CC(C)CCN1c2nc(Nc3cc(F)c(O)c(F)c3)ncc2N(C)C(=O)C1C [BI-D1870] + Cc1nc(NC(=O)N2CCC[C@H]2C(N)=O)sc1-c1ccnc(C(C)(C)C(F)(F)F)c1 [Alpelisib] (partner 2 µM)
Method in brief: as §1

Zebularine + Linsitinib = compound: O=c1ncccn1[C@@H]1O[C@H](CO)[C@@H](O)[C@H]1O [Zebularine] + C[C@]1(O)C[C@@H](c2nc(-c3ccc4ccc(-c5ccccc5)nc4c3)c3c(N)nccn32)C1 [Linsitinib] (partner 1 µM)
Method in brief: as §1

Zebularine + Dasatinib = compound: O=c1ncccn1[C@@H]1O[C@H](CO)[C@@H](O)[C@H]1O [Zebularine] + Cc1nc(Nc2ncc(C(=O)Nc3c(C)cccc3Cl)s2)cc(N2CCN(CCO)CC2)n1 [Dasatinib] (partner 0.075 µM)
Method in brief: as §1

UMC-11 showed a relative viability (BI-D1870 + Vorinostat; first compound 0.04 µM) of 0.394, a relative viability (BI-D1870 + Vorinostat; first compound 0.1265 µM) of 0.377 and a relative viability (BI-D1870 + Vorinostat; first compound 0.4 µM) of 0.337. The relative viability (BI-D1870 + Vorinostat; first compound 1.265 µM) was 0.329, the relative viability (BI-D1870 + Vorinostat; first compound 4 µM) was 0.128 and the relative viability (BI-D1870 + Alpelisib; first compound 0.04 µM) was 1.05. For the same cell line, the relative viability (BI-D1870 + Alpelisib; first compound 0.1265 µM) was 0.935, the relative viability (BI-D1870 + Alpelisib; first compound 0.4 µM) was 1 and the relative viability (BI-D1870 + Alpelisib; first compound 1.265 µM) was 1.05. The relative viability (BI-D1870 + Alpelisib; first compound 4 µM) was 1.02, the relative viability (Zebularine + Linsitinib; first compound 1 µM) was 1.21 and the relative viability (Zebularine + Linsitinib; first compound 3.162 µM) was 1.02. It also gave a relative viability (Zebularine + Linsitinib; first compound 10 µM) of 0.691, a relative viability (Zebularine + Linsitinib; first compound 31.62 µM) of 0.574 and a relative viability (Zebularine + Linsitinib; first compound 100 µM) of 0.418. For the same cell line, the relative viability (Zebularine + Dasatinib; first compound 1 µM) was 0.514, the relative viability (Zebularine + Dasatinib; first compound 3.162 µM) was 0.471 and the relative viability (Zebularine + Dasatinib; first compound 10 µM) was 0.205. It also gave a relative viability (Zebularine + Dasatinib; first compound 31.62 µM) of 0.436 and a relative viability (Zebularine + Dasatinib; first compound 100 µM) of 0.324.

Reference: the supplement of paper PMC10307832
